Data as given in publication PMC11623267, “Inhibitors of malaria parasite cyclic nucleotide phosphodiesterases block asexual blood-stage development and mosquito transmission” (Science Advances, 2024).

What was measured:
P. falciparum ABS = conditions: read-out: EC50 P. falciparum ABS growth inhibition; cited from earlier work
PDEβ = biological target: T1, PDEβ (Plasmodium falciparum, UniProt Q8I6Z7); assay: cAMP hydrolysis SPA in schizont membrane lysates; format: biochemical; conditions: read-out: IC50 against PDEβ
T1 construct: endogenous in cells; host or cells: P. falciparum 3D7 schizonts, NP-40 membrane lysate
T1 sequence (Q8I6Z7 whole entry): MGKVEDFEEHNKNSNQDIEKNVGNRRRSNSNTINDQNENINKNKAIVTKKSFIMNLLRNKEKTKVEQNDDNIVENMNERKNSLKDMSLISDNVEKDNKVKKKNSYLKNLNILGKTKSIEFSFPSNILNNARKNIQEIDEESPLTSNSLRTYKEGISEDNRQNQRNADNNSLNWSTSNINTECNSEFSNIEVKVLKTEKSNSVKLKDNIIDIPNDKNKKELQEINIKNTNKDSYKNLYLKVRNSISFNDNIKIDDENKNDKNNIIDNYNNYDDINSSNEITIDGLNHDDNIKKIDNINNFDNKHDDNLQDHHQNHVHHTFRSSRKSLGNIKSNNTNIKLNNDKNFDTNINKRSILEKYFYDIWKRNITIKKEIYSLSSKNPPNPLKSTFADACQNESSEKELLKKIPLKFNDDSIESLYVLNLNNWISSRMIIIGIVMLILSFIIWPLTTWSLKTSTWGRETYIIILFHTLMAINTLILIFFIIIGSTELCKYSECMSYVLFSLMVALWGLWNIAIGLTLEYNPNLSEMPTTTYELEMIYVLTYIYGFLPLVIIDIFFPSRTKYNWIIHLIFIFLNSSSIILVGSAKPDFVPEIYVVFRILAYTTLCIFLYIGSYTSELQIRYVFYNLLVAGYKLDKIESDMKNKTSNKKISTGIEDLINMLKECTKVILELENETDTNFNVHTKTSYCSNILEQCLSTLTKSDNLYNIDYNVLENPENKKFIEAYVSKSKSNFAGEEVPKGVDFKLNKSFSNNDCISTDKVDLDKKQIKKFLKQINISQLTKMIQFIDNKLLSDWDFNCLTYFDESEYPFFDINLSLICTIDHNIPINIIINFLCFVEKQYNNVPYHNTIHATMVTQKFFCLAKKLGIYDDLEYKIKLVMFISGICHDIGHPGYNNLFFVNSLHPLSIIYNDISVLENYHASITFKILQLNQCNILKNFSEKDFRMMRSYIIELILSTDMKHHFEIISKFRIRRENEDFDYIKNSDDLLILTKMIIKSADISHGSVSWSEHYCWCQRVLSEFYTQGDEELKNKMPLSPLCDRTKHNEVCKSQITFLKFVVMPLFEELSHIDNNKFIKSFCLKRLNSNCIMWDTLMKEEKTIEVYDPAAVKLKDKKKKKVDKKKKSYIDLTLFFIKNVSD
Description: We identified three PDE inhibitor chemical series generated by Pfizer, with structures in the public domain, which have activity against malaria parasites (see the “Chemistry strategy summary” section). These series were originally designed to inhibit human PDEs and were chosen as chemistry start points to optimize activity against malaria parasites. More than 400 new analogs were generated (full details of their properties will be reported in a separate paper, in preparation) through iterative rounds of synthesis and testing. The chemistry start points for each of the series were SAL-0010042 (5-benzyl), SAL-0010043 (5-aryl), and SAL-0010034 (2-alkyl) (see Materials and Methods and fig. S1A). S2. Analytical data for these compounds are provided in data S1. All newly synthesized compounds were tested for inhibition of native cAMP-PDE activity in mature schizont crude membrane preparations and inhibition of P. falciparum ABS growth. S3A. […] The unbound EC50 values for the compounds in the parasite growth inhibition assay were consistently calculated to be sevenfold higher than the IC50 values in the biochemical assay. Given that PDEβ is dual specific (i.e., can hydrolyze both cAMP and cGMP), we also determined IC50 values for cGMP hydrolysis. […] The IC50 values measured for cGMP hydrolysis in blood-stage schizonts were generally similar to those for cAMP hydrolysis (Table 1). […]
The cyclic nucleotide hydrolytic activity of membrane-associated parasite PDE enzymes was measured by a scintillation proximity assay (SPA) ([18]) using lysates of mature P. falciparum schizonts or stage IV/V gametocytes. […] The IC50 values for the compounds were determined using threefold serial dilutions in duplicate. […] The reactions were terminated by addition of 25 μl of PDE SPA beads (PerkinElmer, RPNQ0150), and after 20 min of incubation at room temperature, scintillation was measured using a Wallac 1450 Microbeta Counter (PerkinElmer) for 30 s. […]

recombinant human PDE9 = test system: recombinant human PDE9; design: method as in PMID 25555060, PMID 21766240; conditions: cited from earlier work
[1] = test system: P. falciparum stage V gametocytes (male gamete formation); assay: Exflagellation (male gamete formation) inhibition assay; format: cell-based, Plasmodium falciparum; conditions: 2 μM, 48 hours
Procedure: The exflagellation inhibition assay was performed by capturing movement of exflagellation centers over time by video microscopy [adapted from a reported protocol ([52])]. For this carry-over format, mature stage V gametocytes were treated with 2 μM of each compound for 48 hours before induction of exflagellation in the presence of compound. To evaluate compound dose response, gametocytes were treated similarly at a set of concentrations representing a fourfold serial dilution. Mature gametocyte cultures (>95% stage V; 500 μl) were centrifuged at 3500 rpm for 30 s, and the pellet was resuspended in 30 μl of ookinete medium [RPMI 1640 medium containing L-glutamine (Sigma-Aldrich, R6504), gentamycin (0.024 mg/ml; HyClone, SV30080.01), 202 μM hypoxanthine (Sigma-Aldrich, H9636), 25 mM Hepes (Sigma-Aldrich, H4034), 0.2% glucose (Sigma-Aldrich, G6152), and 0.5% (w/v) AlbuMAX II (Invitrogen, Paisley, UK), supplemented with 100 μM XA and 20% human serum]. The activated culture (10 μl) was introduced into a Neubauer chamber and placed on the microscope platform to settle homogenously. Time was noted as time zero (T0), and the chamber was incubated at room temperature. Movement was recorded by video microscopy using a Carl Zeiss NT 6V/10W Stab microscope, fitted with a MicroCapture camera at 10× magnification, and then quantified by a semiautomated method, a modification of the method described previously ([53]). A series of 15 videos of 8 to 10 s each were captured at random locations between 15 and 22.5 min after incubation. Each video was analyzed using Icy bioimage analysis software to quantify the number of exflagellating centers. Compound IC50 values were determined with nonlinear curve fitting (GraphPad Prism 6), normalized to maximum and minimum inhibition.

P. falciparum Dd2 = P. falciparum Dd2 LDH growth inhibition assay (asexual blood stage); format: cell-based, Plasmodium falciparum; conditions: multidrug-resistant Dd2; geometric mean ×/÷ geometric SD
Procedure: (§1) P. falciparum isolates (3D7/Dd2) were obtained from BEI Resources and were cultured using standard procedures as described elsewhere ([47]). Briefly, P. falciparum was grown in RPMI 1640 medium (10.3 g/liter) supplemented with L-glutamine (2 mM), hypoxanthine (150 μM), Hepes (25 mM), D-glucose (12 mM), sodium bicarbonate (25.7 mM), AlbuMAX II (0.5% or 5 g/liter) (pH 7.4), and 2% RBC (type O+, freshly prepared). Cultures were replenished with fresh medium and RBCs every other day. For RBC preparation, whole blood was centrifuged at 415g at room temperature for 12 min. After that, the plasma and buffy coat were removed, and packed RBCs were washed three times with 3 vol of RPMI 1640. Last, RBCs were resuspended in 1:1 vol of complete RPMI 1640 medium (containing 0.5% AlbuMAX II).
(§2) The P. falciparum 3D7 and Dd2 LDH growth inhibition assay was carried out as described elsewhere ([48]) with minor modification of the parasitological conditions (10 to 15% parasitemia with ≥80% rings). Data were normalized to percent growth inhibition with respect to […] (for 3D7, a mixture of 100 nM chloroquine and 100 nM atovaquone as 100% inhibition; for Dd2, a mixture of 200 nM DHA and 200 nM atovaquone as 100% inhibition) controls.

[2] = test system: P. falciparum stage IV/V gametocytes; assay: LDH-based gametocyte viability assay; format: cell-based, Plasmodium falciparum; conditions: stage IV to V gametocytes
Procedure: The pLDH assay was performed on late (>95% stage IV/V) gametocytes. Compound dilutions were placed in triplicate in 96-well plates in a final volume of 100 μl per well. DHA and MMV048 were used as positive drug controls. The gametocyte cultures (100 μl per well) were added to the 96-well plates to achieve a final gametocytemia and hematocrit of 2 and 1%, respectively, in a total incubation volume of 200 μl. Plates were incubated at 37°C for 72 hours, followed by the replacement of spent medium with drug-free culture medium (75% medium change) ([54], [55]). Plates were then incubated for a further 72 hours before assessing viability by measuring pLDH activity. Gametocyte viability was determined spectrophotometrically by measuring the activity of pLDH, according to a modified version of a published protocol ([56]). Briefly, 100 μl of Malstat reagent [0.21% (v/v) Triton X-100, 222 mM L-(+)-lactic acid, 54.5 mM tris, 0.166 mM APAD (Sigma-Aldrich, A5251), adjusted to pH 9 with 1 M NaOH] was transferred into a clean 96-well plate. A fixed volume of 20 μl of parasite suspension per well was added to the Malstat plate, followed by the addition of 25 μl of PES/NBT (0.239 mM phenazine ethosulfate and 1.96 mM nitro blue tetrazolium chloride). Absorbance was measured with a Multiskan Ascent 354 multiplate scanner (Thermo LabSystems, Finland) at 620 nm.

[3] = test system: P. falciparum clinical isolates from Porto Velho, Brazil; assay: Ex vivo schizont maturation assay, Brazilian clinical isolates; format: cell-based, Plasmodium falciparum; conditions: eight Brazilian isolates; read-out: Median EC50, clinical isolates
Procedure: (§3) Only monoinfected patients with P. falciparum with parasitemia between 2000 and 80,000 parasites/μl and with at least 70% of ring-stage parasites were recruited. Patients who had used an antimalarial in the previous month and/or presented with symptoms of severe malaria were excluded from the study. The study cohort comprised 24 patients living in this highly endemic area. A peripheral venous blood sample (5 ml) was collected from each individual by venipuncture in heparin-containing tubes and immediately used in the ex vivo drug susceptibility assay using preprepared plates containing diluted antimalarial compounds. […] Last, 20 μl of each dilution was transferred into the ex vivo assay plate and diluted 10-fold into the final assay medium containing parasites. For the infected blood preparation, 5 ml of whole blood was centrifuged at 800g for 10 min, and the plasma and buffy coat were removed. […] Control assays on a 3D7 laboratory isolate were performed with medium supplemented with human serum (20%). The iRBC (180 μl per well) were distributed in the predosed drug plate. […] Control wells containing drug-free iRBCs were cultured with complete medium. The parasite-drug incubation was terminated when 40% of the ring stages reached the schizont stage (at least three distinct nuclei per parasite) in the drug-free control wells. Thick blood films were then made from each well, dried, stained with 5% Giemsa solution for 30 min, and examined microscopically. The number of schizonts per 200 asexual-stage parasites was determined for each drug concentration and then normalized by comparing with the schizont number in the drug-free control wells [considered as 100% ([64])]. The half-maximal drug inhibitory response (EC50) was estimated by curve fitting using software from the OriginLab Corporation, Northampton, MA, USA and comparing with parasite growth in the drug-free controls.

P. falciparum 3D7 [4] = assay: Ex vivo schizont maturation assay, 3D7 control (Brazil); format: cell-based, Plasmodium falciparum; conditions: tested in parallel with Brazilian isolates, 20% human serum
Procedure: as §3, with “The parasite-drug incubation was terminated when 40% of the ring stages reached the schizont stage (at least three distinct nuclei per parasite) in the drug-free control wells. Thick blood films were then made from each well, dried, stained with 5% Giemsa solution for 30 min, and examined microscopically.” left out, “The half-maximal drug inhibitory response (EC50) was estimated by curve fitting using software from the OriginLab Corporation, Northampton, MA, USA and comparing with parasite growth in the drug-free controls.” left out

[5] = test system: P. falciparum stage V gametocytes (female gamete formation); assay: Female gamete formation inhibition assay; format: cell-based, Plasmodium falciparum; conditions: 2 μM, 48 hours
Procedure: Mature gametocytes (>95% stage V) were treated with compounds (2 μM) for 48 hours before stimulating female gamete formation. To evaluate compound dose response, gametocytes were treated similarly at set concentrations representing a fourfold serial dilution. Female gamete activation was induced by both a temperature drop and the addition of 100 μM XA. Monoclonal anti-Pfs25 antibody (BEI Resources, catalog number MRA-28; 1:1000 dilution) conjugated to fluorescein isothiocyanate was used to detect female gametes. Image acquisition was performed using a Zeiss Axio Lab.A1 epifluorescence microscope with a 100/1.4 numerical aperture oil immersion objective and a Zeiss Axiocam 202 mono digital camera. Using a 100× objective, 30 images were taken per sample and analyzed manually. The number, size, roundness, and intensity of fluorescence of activated female gametocytes were evaluated. Compound IC50 values were determined with nonlinear curve fitting (GraphPad Prism 6), normalized to maximum and minimum inhibition.

malaria parasites = test system: malaria parasites; design: method as in PMID 25951195, PMID 33262483; conditions: cited from earlier work
P. falciparum 3D7 [6] = assay: P. falciparum 3D7 LDH growth inhibition assay (asexual blood stage); format: cell-based, Plasmodium falciparum; conditions: Plasmodium falciparum, 3D7, read-out: EC50 against ABS parasites
Procedure: as §1, §2

PDE6 = test system: PDE6; design: method as in PMID 29743944; conditions: cited from earlier work

SMILES | EC50 (P. falciparum ABS) | IC50 (PDEβ) | Potency against recombinant human PDE9 (recombinant human PDE9) | % inhibition of exflagellation at 2 μM [1] | EC50 (P. falciparum Dd2) | % inhibition gametocyte viability at 15 μM [2] | EC50 [3] | EC50 (P. falciparum 3D7 [4]) | % inhibition of female gamete formation at 2 μM [5] | IC50 against malaria parasites (malaria parasites) | EC50 (P. falciparum 3D7 [6]) | Selectivity (PDE5 over PDE6) (PDE6)
CC(C)c1n[nH]c2c(=O)[nH]c(Cc3ccccc3)nc12 [BIPPO, 5-benzyl-3-isopropyl-1H-pyrazolo[4,3-d]pyrimidin-7(6H)-one] | 400 nM | 9 nM | 30 nM | – | – | – | – | – | – | – | – | –
CCc1c2nc(-c3cc(C(=O)NC(C)C)cnc3OCC(C)C)[nH]c(=O)c2nn1CCOC [SAL-0010255] | – | – | – | 48.8 ± 25.3% | 126 nM | 40.4 ± 3.1% | 157 nM | 89 nM | 66.7 ± 1.8% | – | – | –
CCCc1nn(C)c2c(=O)[nH]c(-c3cc(S(=O)(=O)N4CCN(C)CC4)ccc3OCC)nc12 [sildenafil] | – | > 10000 nM | – | – | – | – | – | – | – | mid-to-high micromolar range | > 25000 nM | < 10 fold
